Legend:
[1] = target: CD14 on spleen adherent cells of DBA/2 mice (mouse (cells from DBA/2 mice)) (UniProt P10810); assay: cell-based or functional assay
[2] = Bioenhancing effect on LPS (data not shown)
mouse spleen cells = assay: Cytokine production by mouse spleen cells with LPS and Hb; format: cell-based, C57BL/6 mice; conditions: murine spleen cells, LPS 200 ng/ml
Procedure: (§1) Spleen cells were pooled from 3 C57BL/6 donors (8-week male). Cells were incubated in triplicate in 2 ml medium (with 10% fetal calf serum and 200 ng/ml LPS) at a concentration of 1×10^6/ml. Medium contained in addition adult or fetal (sheep) hemoglobin at the various concentrations shown. Supernatants were harvested 24 hrs later to assay in triplicate for TNFα by ELISA. […] Control cultures (no LPS, LPS only, or fetal/adult Hb only) produced levels <50 ng/ml, <70 ng/ml or <50 ng/ml respectively.
as §1, with “assay for IL-6” for “assay”, “triplicate” for “triplicate for TNFα”, “<100” for “<50”, “<120” for “<70”
In this experiment the cloned γ- and β-chain of sheep Hb were assayed as CHO extracts (20 μg/ml) together with LPS (100 ng/ml) to stimulate murine spleen cells in vitro for the production of TNFα (detection at 24 hr by ELISA) […]

[3] = test system: S-form LPS, Re-LPS, Lipid A; assay: LPS/Lipid A-specific adsorption assay; format: binding
Procedure: In order to identify the LPS or Lipid A-interacting protein(s) in CLP1b a LPS/Lipid A-specific adsorption assay was developed. In this screening system polyvinylchloride 96-well microtiter plates (Becton Dickinson) were coated for 14 h at 4° C. with S-form LPS from Salmonella enterica sv. Minnesota 188233, Re-LPS from E. coli F515 or a Lipid A preparation derived from the E. coli strain solubilized as triethylamine (TEA) salts in LAL reagent water (BioWhittaker) at concentrations of 5 μg/ml or 2 μg/ml, respectively. As a control a series of wells was similarly treated with LAL reagent water without the addition of LPS or Lipid A. Subsequently, the solutions were decanted and the wells were rinsed four times with Dulbeccos phosphate-buffered saline (D-PBS; Lifetechnologies) without magnesium or calcium salts. […] In addition, the lyophilized samples from the prior CLP1b incubation and the following sequence of washing steps were resuspended in 50 μl SDS-Sample buffer and the compositions of the collected samples from the adsorption assay were analyzed by SDS-PAGE in 15% (w/v) polyacrylamide gels and silver staining according to the method described by Heukeshoven [Heukeshoven, J., 1986].

[4] = test system: LPS aggregates (Re-LPS from E. coli F515, S-form LPS from Salmonella enterica sv. Minnesota 188233); assay: LPS disaggregation, automated native PAGE assay; conditions: LPS 0.275 μg/μl, hemoglobin 0.375 μg/μl, 37° C., 30 min
Excerpt: Concerning the molecular mechanism of the enhancement of LPS bioactivities by adult mammalian hemoglobin (HbA) preparations, a profound dispersion of the physiologically predominating large LPS aggregates (MW≧10^6 Da) by HbA has been described [Roth, R. J., 1994; Kaca, W., 1994; Roth R. J., 1999]. For analysis of potential analogous effects of highly purified fetal ovine hemoglobin (s-HbF) an automated native PAGE assay was established employing the PhastSystem™ apparatus (Amersham Pharmacia Biotech). Briefly, Re-LPS purified from E. coli F515 or S-form LPS from Salmonella enterica sv. Minnesota 188233 at a final concentration of 0.275 μg/μl was incubated in the presence or absence of the analyzed hemoglobin preparations (0.375 μg/μl) at 37° C. for 30 min. […] The denatured samples were finally analyzed by SDS-PAGE in PhastGel™ Homogeneous-20 gels equipped with PhastGel™ SDS buffer strips (Amersham Pharmacia Biotech) according to the standard protocol of the manufacturer and subsequent silver staining. In comparison to ovine HbF preparations of human HbA (SIGMA-Aldrich), adult ovine hemoglobin (s-HbA) and heme-free fetal ovine hemoglobin (s-HbF/hf) were analysed for LPS disaggregation activities in the native Phast™ PAGE assay.

human PBL = assay: TNFα production by human PBL with LPS and Hb; format: cell-based; conditions: LPS 200 ng/ml
Procedure: PBL were obtained by Ficoll-hypaque purification from volunteers. Cells were incubated in triplicate in 2 ml medium (with 10% commercial human AB serum and 200 ng/ml LPS) at a concentration of 1×10^6/ml. Medium contained in addition adult or fetal (sheep) hemoglobin at the various concentrations shown. Supernatants were harvested 24 hrs later to assay in triplicate for TNFα by ELISA. […] Control cultures (no LPS, LPS only, or fetal/adult Hb only) produced levels <50 ng/ml, <100 ng/ml or <65 ng/ml respectively.
PBL were obtained by Ficoll-hypaque purification from volunteers. Cells were incubated in 2 ml medium (with 10% commercial human AB serum). Cells were incubated in the presence/absence of 500 ng/ml adult or fetal sheep hemoglobin α- or γ-chain. Control cells were incubated in the absence of hemoglobin protein (far left of Figure). In addition, each group was further subdivided into triplicates which received no additional materials (open bars), or 200 ng/ml LPS (closed bars). Supernatants were harvested 24 hrs later to assay (in triplicate) for TNFα by ELISA. Data in panels A and B are independent studies using different volunteer donors (mean ±SD). […]

adherent spleen cells = assay: Co-stimulation of adherent spleen cells (macrophages) with LPS/CLP2p and recombinant cytokines, cytokine ELISA; format: cell-based, DBA/2 mice; conditions: 18 h; LPS 1 μg/ml, CLP2p 0.3 μg/ml, rIL-12/rIL-13 0.1 μg/ml, anti-IL-12 10 μg/ml
Procedure: LPS, as well as many defined cytokines, including IL-1, IL-6, IL-10, IL-12, IL-13 and IFNγ, stimulate macrophages to produce other cytokines in vitro and in vivo. […] In addition, cells were treated with CLP2p, or with cytokines, in the presence of monoclonal antibodies to cytokines. Cytokine production was measured by ELISA (all reagents purchased by Pharmingen, San Diego, USA).
IL-12 is a primary physiological stimulus for cytokine production by macrophages during inflammation [Wang, J., 1999], and LPS may mediate its stimulatory effects by inducing IL-12 production. Similarly, IL-13 may be a physiologic counter-regulator of stimulation by IL-12 [Machado, F., 1998]. […] In some cultures a monoclonal antibody to IL-12 was included. (Recombinant cytokines were obtained according to conventional protocols.) Data pooled from 3 such studies are shown in Table 1.

Sequence of UniProt P10810 (P10810 16-336): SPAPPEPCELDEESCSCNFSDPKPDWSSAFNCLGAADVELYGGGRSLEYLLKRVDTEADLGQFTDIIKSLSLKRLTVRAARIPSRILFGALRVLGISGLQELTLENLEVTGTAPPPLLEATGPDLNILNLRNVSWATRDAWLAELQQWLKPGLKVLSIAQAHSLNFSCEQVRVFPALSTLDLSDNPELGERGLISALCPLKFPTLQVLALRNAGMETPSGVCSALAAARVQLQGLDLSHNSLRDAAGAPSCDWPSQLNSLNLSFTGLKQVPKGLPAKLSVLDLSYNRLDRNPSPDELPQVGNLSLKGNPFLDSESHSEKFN

## commercial anti-CD14 monoclonal antibody (UCHM-1, Sigma)
[1]
  Inhibition % of TNF-α production by spleen adherent cells; stimulus CLP2p (0.3 µg/ml), anti-CD14 2.5 µg/ml: 46%
  Inhibition % of TNF-α production by spleen adherent cells; stimulus CLP2p (0.3 µg/ml), anti-CD14 10 µg/ml: 80%
  Inhibition % of TNF-α production by spleen adherent cells; stimulus LPS (1 µg/ml), anti-CD14 2.5 µg/ml: 58%
  Inhibition % of TNF-α production by spleen adherent cells; stimulus LPS (1 µg/ml), anti-CD14 10 µg/ml: 81%

## myoglobin
[2]
  bioenhancing effect: not observed

## fetal Hb: purified fetal sheep hemoglobin, α and γ chains (α2γ2)
Mouse spleen cells
  synergy with LPS in the production of TNFα or IL-6: clear evidence for a synergy
[3]
  LPS/Lipid A interaction in CLP1b: major LPS/Lipid A-interacting component
[4]
  LPS disaggregation activity: stronger LPS disaggregation activities
Human PBL
  synergy with LPS for the production of TNFα: striking synergy

## rIL-13: recombinant cytokine IL-13 [reference compound]
Adherent spleen cells
  IL-1 level in culture supernatant: 15 ng/mL
  IL-6 level in culture supernatant: 1040 pg/mL
  TNFα level in culture supernatant: 40 ng/mL

B1: rIL-12: recombinant cytokine IL-12 (protein, UniProt P29459 23-219; P29460 23-328, looked up)
Interleukin-12 subunit alpha: RNLPVATPDPGMFPCLHHSQNLLRAVSNMLQKARQTLEFYPCTSEEIDHEDITKDKTSTVEACLPLELTKNESCLNSRETSFITNGSCLASRKTSFMMALCLSSIYEDLKMYQVEFKTMNAKLLMDPKRQIFLDQNMLAVIDELMQALNFNSETVPQKSSLEEPDFYKTKIKLCILLHAFRIRAVTIDRVMSYLNAS
Interleukin-12 subunit beta: IWELKKDVYVVELDWYPDAPGEMVVLTCDTPEEDGITWTLDQSSEVLGSGKTLTIQVKEFGDAGQYTCHKGGEVLSHSLLLLHKKEDGIWSTDILKDQKEPKNKTFLRCEAKNYSGRFTCWWLTTISTDLTFSVKSSRGSSDPQGVTCGAATLSAERVRGDNKEYEYSVECQEDSACPAAEESLPIEVMVDAVHKLKYENYTSSFFIRDIIKPDPPKNLQLKPLKNSRQVEVSWEYPDTWSTPHSYFSLTFCVQVQGKSKREKKDRVFTDKTSATVICRKNASISVRAQDRYYSSSWSEWASVPCS
Adherent spleen cells
  IL-1 level in culture supernatant: 235 ng/mL
  IL-6 level in culture supernatant: 359 pg/mL
  TNFα level in culture supernatant: 149 ng/mL
